According to ChEMBL document CHEMBL3045302, “Structure-activity Relationship for the Insect Antifeedant Activity of Benzofuran Derivatives” (Biosci Biotechnol Biochem, 1999):

What was measured:
[1] = Lipophilicity of the compound assessed as retardation factor using hexane-ethyl acetate solvent system (5:2) on silica gel TLC plate system; assay type: physicochemical; conditions: hexane-ethyl acetate (5:2)
[2] = system: Spodoptera litura; assay: Antifeedant activity against Spodoptera litura third-instar larvae fed on compound treated fresh sweet potato leaves by dual choice leaf disk assay; assay type: functional
[3] = system: Daphnia magna; assay: Toxicity against Daphnia magna after 12 hr post compound treatment; assay type: organism-based; conditions: in vivo

| SMILES | Rf [1] | ED50 [2] | pED50 [2] | LD50 [3] |
| --- | --- | --- | --- | --- |
| C=C(C)C1Cc2c(OC)cc(OC)c(C(C)=O)c2O1 (centres undefined) | 0.24 | 5.4 ×10⁻⁹ mol/cm2 | 8.27 | 9.1 ppm |
| C=C(C)C1Cc2c(OC)c(OC)c(OC)c(C(C)=O)c2O1 (centres undefined) | 0.52 | 1.6 ×10⁻⁸ mol/cm2 | 7.8 | – |
| C=C(C)C1Cc2ccccc2O1 (centres undefined) | 0.92 | 1.1 umol/cm2 | 5.96 | – |
| C=C(C)C1Cc2ccc(OC)cc2O1 (centres undefined) | 0.86 | 6.3 ×10⁻⁷ mol/cm2 | 6.2 | – |
| C=C(C)C1Cc2cc(OC)ccc2O1 (centres undefined) | 0.84 | 1.3 ×10⁻⁷ mol/cm2 | 6.89 | – |
| C=C(C)C1Cc2cc(C(C)=O)ccc2O1 (racemic) | 0.61 | 7.4 ×10⁻⁸ mol/cm2 | 7.13 | – |
| C=C(C)c1cc2cc(C(C)=O)c(O)cc2o1 [EUPARIN] | 0.76 | 1.2 ×10⁻⁹ mol/cm2 | 5.92 | – |
| C=C(C)c1cc2cc(C(C)=O)c(OC)cc2o1 [MethylEuparin] | 0.66 | 6.1 ×10⁻⁸ mol/cm2 | 7.21 | – |

The next lines start with results.

| Rf [1] | SMILES | ED50 [2] | pED50 [2] | LD50 [3] |
| --- | --- | --- | --- | --- |
| 0.52 | C=C(C)C1Cc2c(cc(OC)c(C(C)=O)c2OC)O1 (centres undefined) | 2.8 ×10⁻⁸ mol/cm2 | 7.55 | – |
| 0.62 | C=C(C)C1Cc2cc(C(C)=O)c(OC)cc2O1 (centres undefined) | 4.2 ×10⁻⁸ mol/cm2 | 7.38 | – |
| 0.58 | COc1cc2c(c(OC)c1C(C)=O)CC(C(C)C)O2 (centres undefined) | 7.6 ×10⁻⁸ mol/cm2 | 7.12 | – |
| 0.83 | C=C(C)C1Cc2c(cc(OC)c(C(C)O)c2OC)O1 (centres undefined) | 1.1 ×10⁻⁷ mol/cm2 | 6.96 | – |
| 0.82 | C=C(C)C1Cc2c(OC)cc(OC)cc2O1 (centres undefined) | 5.3 ×10⁻⁸ mol/cm2 | 7.28 | – |
| 0.68 | C=C(C)C1Cc2c(cc(OC)c(OC)c2OC)O1 (centres undefined) | 5.6 ×10⁻⁸ mol/cm2 | 7.25 | – |
| 0.51 | C=C(C)C1Cc2c(cc(OC)c(C(C)=O)c2O)O1 (racemic) | 7.1 ×10⁻⁸ mol/cm2 | 7.15 | – |
| 0.51 | C=C(C)[C@@H]1Cc2c(cc(OC)c(C(C)=O)c2O)O1 [REMIROL] | 1.3 ×10⁻⁷ mol/cm2 | 6.89 | – |
